Laboratory results published in patent US6713265B1 (Synaptic Pharmaceutical Corporation, priority 1999, dated 2004).
Values joined by “and” are separate entries in the source; they are usually repeats but may differ in a detail not shown here. Equal entries are not always repeated. Structures can show the parent of a compound that is named as a salt.

Tests used:
food intake = test: Food intake in food-deprived rats; type: in vivo, rat; conditions: 30 mg/kg i.p., after 24h food deprivation
Protocol: After receipt, the animals are individually housed for the duration of the study and allowed free access to normal food together with tap water. The animals are maintained in a room with a 12 h light/dark cycle (8:00 a.m. to 8:00 p.m. light) at 24° C. and monitored humidity. After placement into individual cages the rats undergo a 4 day equilibration period, during which they are habituated to their new environment and to eating a powdered or pellet diet NAFAG, Gossau, Switzerland).
At the end of the equilibration period, food is removed from the animals for 24 hours starting at 8:00 a.m. At the end of the fasting period compound or vehicle may be administered to the animals orally or by injection intraperitoneally or intravenously. After 10-60 min. food is returned to the animals and their food intake is monitored at various time periods during the following 24 hour period. The food intake of animals treated with test compound may be calculated as a percentage of the food intake of control animals (i.e., animals treated with vehicle). Alternatively, food intake for each group of animals subjected to a particular experimental condition may be expressed as the mean±S.E.M.
Measurements were performed two hours after administration of the test compound.

human Y4 receptor = biological target: T1, human Y4 receptor (Homo sapiens, UniProt P50391); test: ^125I-PYY binding to membranes, cloned human Y4 receptor; conditions: read-out: Binding Affinity Ki vs. ^125I-PYY, Human Receptor Y4; Table 14; stably transfected LM(tk-) cells
T1 construct: expressed in transfected cells; host or cells: COS-7 (transient)

human Y2 receptor = biological target: T2, human Y2 receptor (Homo sapiens, UniProt P49146); test: ^125I-PYY binding to membranes, cloned human Y2 receptor; conditions: read-out: Binding Affinity Ki vs. ^125I-PYY, Human Receptor Y2; Table 14; stably transfected 293 cells (compound 1 also COS-7)
T2 construct: expressed in transfected cells; host or cells: COS-7 (transient)
T2 sequence (P49146 1-381): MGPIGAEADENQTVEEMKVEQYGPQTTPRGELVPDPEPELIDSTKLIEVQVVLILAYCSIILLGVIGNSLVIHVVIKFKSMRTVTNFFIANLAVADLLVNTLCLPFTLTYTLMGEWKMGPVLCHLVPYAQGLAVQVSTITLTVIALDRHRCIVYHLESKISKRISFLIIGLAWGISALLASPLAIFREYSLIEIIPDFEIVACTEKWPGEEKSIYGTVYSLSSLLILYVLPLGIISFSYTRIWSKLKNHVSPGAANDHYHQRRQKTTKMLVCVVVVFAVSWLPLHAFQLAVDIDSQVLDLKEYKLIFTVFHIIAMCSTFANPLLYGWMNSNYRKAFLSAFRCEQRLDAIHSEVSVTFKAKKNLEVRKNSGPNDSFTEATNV

human Y1 receptor = biological target: T3, human Y1 receptor (Homo sapiens, UniProt P25929); test: ^125I-PYY binding to membranes, cloned human Y1 receptor; conditions: read-out: Binding Affinity Ki vs. ^125I-PYY, Human Receptor Y1; Table 14; stably transfected 293 cells (compound 1 also COS-7)
T3 construct: expressed in transfected cells; host or cells: COS-7 (transient)
T3 sequence (P25929 1-384): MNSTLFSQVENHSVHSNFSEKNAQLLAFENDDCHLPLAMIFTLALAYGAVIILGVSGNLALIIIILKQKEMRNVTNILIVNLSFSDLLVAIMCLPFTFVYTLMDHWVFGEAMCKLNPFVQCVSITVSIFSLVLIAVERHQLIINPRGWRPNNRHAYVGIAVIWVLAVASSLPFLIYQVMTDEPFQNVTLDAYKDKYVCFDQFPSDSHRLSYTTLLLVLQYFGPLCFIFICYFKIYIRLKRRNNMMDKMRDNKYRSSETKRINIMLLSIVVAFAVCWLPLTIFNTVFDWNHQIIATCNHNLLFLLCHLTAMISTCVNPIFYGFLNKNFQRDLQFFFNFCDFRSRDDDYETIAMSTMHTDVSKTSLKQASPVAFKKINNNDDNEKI

human Y5 receptor [1] = biological target: T4, human Y5 receptor (Homo sapiens, UniProt Q15761); test: Radioligand binding to membranes of cells expressing cloned human Y5 receptor; set-up: Ki Values, Human Y5; apparent Kd; pKd; The isolated clone (CG-19) turned out to contain a full length cDNA; The longest open reading frame encodes a 455 amino acid protein; conditions: read-out: Binding Affinity Ki vs. ^125I-PYY, Human Receptor Y5; Table 14; stably transfected LM(tk-) cells
T4 sequence (Q15761 1-445): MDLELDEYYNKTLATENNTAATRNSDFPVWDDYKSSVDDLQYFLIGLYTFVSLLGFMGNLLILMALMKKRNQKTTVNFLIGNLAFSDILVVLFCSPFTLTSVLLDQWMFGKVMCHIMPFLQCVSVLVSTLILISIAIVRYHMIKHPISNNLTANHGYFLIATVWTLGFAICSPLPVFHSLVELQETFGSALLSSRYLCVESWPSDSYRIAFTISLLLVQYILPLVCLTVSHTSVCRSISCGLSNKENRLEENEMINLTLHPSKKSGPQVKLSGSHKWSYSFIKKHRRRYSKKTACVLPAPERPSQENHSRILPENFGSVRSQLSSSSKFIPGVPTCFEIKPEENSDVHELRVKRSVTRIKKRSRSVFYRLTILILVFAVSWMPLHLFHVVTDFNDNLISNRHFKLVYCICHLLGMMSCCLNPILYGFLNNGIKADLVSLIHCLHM

human Y5 receptor [2] = biological target: T4, human Y5 receptor; test: Radioimmunoassay of cAMP, cells stably expressing human Y5 receptor; type: cell-based; set-up: Ki Values, Human Y5; apparent Kd; pKd; The isolated clone (CG-19) turned out to contain a full length cDNA; The longest open reading frame encodes a 455 amino acid protein; conditions: block of NPY-induced inhibition of cAMP accumulation, forskolin-stimulated LM(tk-) cells, human Y5
Protocol: LM(tk-) cells stably transfected with the human Y5 receptor were routinely converted from an adherent monolayer to a viable suspension. […] The cell suspension was maintained in a shaking incubator at 37° C., 5% CO2 for 24 hours. […] Alternatively, cells may be returned to adherent cell culture in complete DMEM by distribution into 96-well microtiter plates coated with poly-D-lysine (0.01 mg/ml) followed by incubation at 37° C., 5% CO2 for 24 hours.
The maximum inhibition of cAMP accumulation (Emax) and the concentration producing a half-maximal effect (EC50) were determined by nonlinear regression analysis according to a 4 parameter logistic equation.
The ability of the compounds to antagonize the Y-type receptors is reported as the Kb. […] The results shown are representative of at least three independent experiments.

[3] = test system: NPY-induced feeding behavior; test: NPY-induced food intake in satiated rats; type: in vivo, rat; conditions: for Food intake, NPY + compound: compound 10 mg/kg i.p. then 300 pmole NPY i.c.v., 4 hours
Protocol: For these determinations food intake may be measured in normal satiated rats after intracerebroventricular application (i.c.v.) of NPY in the presence or absence of the test compound. Male Sprague Dawley rats (Ciba-Geigy AG, Sisseln, Switzerland) weighing between 180 g and 220 g are used for all experiments. The rats are individually housed in stainless steel cages and maintained on an 11:13 h light-dark cycle (lights off at 18:00 h) at a controlled temperature of 21-23° C. at all times. Water and food (NAFAG lab chow pellets NAFAG, Gossau, Switzerland) are available ad libidum.
Rats under pentobarbital anesthesia are stereotaxically implanted with a stainless steel guide cannula targeted at the right lateral ventricle. Stereotaxic coordinates, with the incisor bar set −2.0 mm below interaural line, are: −0.8 mm anterior and +1.3 mm lateral to bregma. The guide cannula is placed on the dura. Injection cannulas extend the guide cannulas −3.8 mm ventrally to the skull surface. Animals are allowed at least 4 days of recovery postoperatively before being used in the experiments. Cannula placement is checked postoperatively by testing all rats for their drinking response to a 50. ng intracerebroventricular (i.c.v.) injection of angiotensin II. Only rats which drink at least 2.5 ml of water within 30 min. after angiotensin II injection are used in the feeding studies.
All injections are made in the morning 2 hours after light onset. Peptides are injected in artificial cerebrospinal fluid (ACSF) in a volume of 5 μl. ACSF contains: NaCl 124 mM, KCl 3.75 mM, CaCl2 2.5 mM, MgSO4 2.0 mM, KH2PO4 0.22 mM, NaHCO3 26 mM and glucose 10 mM. Porcine-NPY (p-NPY) are dissolved in artificial cerebrospinal fluid (ACS). For i.c.v. injection the test compounds are preferably dissolved in DMSO/water (10%, v/v). The vehicle used for intraperitoneal (i.p.), subcutaneous (s.c.) or oral (p.o.) delivery of compounds is preferably water, physiological saline or DMSO/water (10% v/v), or cremophor/water (20% v/v), respectively.
Animals which are treated with both test compounds and porcine-NPY are treated first with the test compound.
Food intake may be measured by placing preweighed pellets into the cages at the time of NPY injection. Pellets are then removed from the cage subsequently at each selected time point and replaced with a new set of preweighed pellets. The food intake of animals treated with test compound may be calculated as a percentage of the food intake of control animals i.e., animals treated with vehicle. Alternatively, food intake for each group of animals subjected to a particular experimental condition may be expressed as the mean±S.E.M. Statistical analysis is performed by analysis of variance using the Student-Newman-Keuls test.
Food intake is reported as the mean±S.E.M. intake for a group of animals.

α2c = biological target: T5, α2c (Homo sapiens, UniProt P18825); test: Binding at cloned human α2c adrenergic receptor
T5 sequence (P18825 1-462): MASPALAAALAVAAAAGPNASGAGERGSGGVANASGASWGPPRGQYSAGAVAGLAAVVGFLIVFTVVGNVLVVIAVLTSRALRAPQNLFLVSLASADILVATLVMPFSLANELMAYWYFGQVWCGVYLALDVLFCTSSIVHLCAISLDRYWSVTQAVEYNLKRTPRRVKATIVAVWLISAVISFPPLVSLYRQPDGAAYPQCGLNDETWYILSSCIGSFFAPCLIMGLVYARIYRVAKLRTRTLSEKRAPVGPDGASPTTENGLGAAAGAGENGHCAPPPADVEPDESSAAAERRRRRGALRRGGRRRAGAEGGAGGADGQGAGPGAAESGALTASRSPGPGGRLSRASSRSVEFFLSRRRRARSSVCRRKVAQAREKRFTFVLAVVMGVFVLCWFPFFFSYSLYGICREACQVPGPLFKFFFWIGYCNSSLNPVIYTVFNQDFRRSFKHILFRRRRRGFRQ

T1 sequence (P50391 whole entry): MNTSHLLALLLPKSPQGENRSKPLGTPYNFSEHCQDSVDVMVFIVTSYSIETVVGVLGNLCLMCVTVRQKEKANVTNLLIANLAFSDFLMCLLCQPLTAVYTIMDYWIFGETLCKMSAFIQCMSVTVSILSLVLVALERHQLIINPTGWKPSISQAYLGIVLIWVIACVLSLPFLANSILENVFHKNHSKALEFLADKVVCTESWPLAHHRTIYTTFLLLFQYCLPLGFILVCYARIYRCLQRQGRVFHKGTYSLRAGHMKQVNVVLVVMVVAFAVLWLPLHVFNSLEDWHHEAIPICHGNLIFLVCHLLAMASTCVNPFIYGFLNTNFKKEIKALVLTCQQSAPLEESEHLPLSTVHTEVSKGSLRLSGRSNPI

What does the source list for `Cl.Cl.O=[N+]([O-])c1ccccc1S(=O)(=O)NC[C@H]1CC[C@H](CNCc2ccc3ccccc3n2)CC1` [Compound 26]?
Two-hour food intake of food-deprived rats, percentage of intake compared to control rats, Mean (food intake): 73%; Ki (human Y4 receptor): 19.3 µM; Ki (human Y2 receptor): 58.2 µM; Ki (human Y1 receptor): 23.7 µM

Which “Two-hour food intake of food-deprived rats, percentage of intake compared to control rats, Mean” value (food intake) does the source give for `CC(=O)O[C@H]1CC[C@H](Nc2nc(Nc3ccccc3)c3ccccc3n2)CC1.Cl` [Compound 7, trans-2-(4-Acetoxy-cyclohexylamino)-4-Phenylamino-quinazoline hydrochloride] here?
The value was 47%.

For `Cl.O=S(=O)(NC[C@H]1CC[C@H](CNCc2cccc3ccccc23)CC1)c1ccccc1C(F)(F)F` [Compound 23], which “Two-hour food intake of food-deprived rats, percentage of intake compared to control rats, Mean” value (food intake) is on record?
Its value is 58%.

What about the Ki (human Y5 receptor [1]) of the same molecule?
Its Ki is 0.026 µM.

And the Ki (human Y4 receptor)?
The Ki was 21.5 µM.

And the Kb (human Y5 receptor [2])?
The Kb was 0.038 µM.

What about the Ki (human Y2 receptor) of the same molecule?
The Ki was 0.617 µM.

And the Ki (human Y1 receptor)?
Its Ki is 14.5 µM.

With `CNS(=O)(=O)Cc1ccc(Nc2nc(Nc3ccccc3)c3cc(OC)ccc3n2)cc1` [Compound 10, N-Methyl-[4-(6-methoxy-4-phenylamino-quinazolin-2-ylamino)-phenyl1-methanesulfonamide hydrochloride] as the molecule, how does the “Two-hour food intake of food-deprived rats, percentage of intake compared to control rats, Mean” value (food intake) read?
Its value is 74%.

`c1ccc(Nc2nc(Nc3ccccc3)c3ccccc3n2)cc1` [Compound 1, 2,4-Diphenylamino-guinazoline hydrochloride] was tested. Which “Food intake, NPY + compound” value ([3]; mean ± S.E.M.) did it give?
The value was 4.6 ± 0.6 g.

Which “Food intake, NPY + compound” value ([3]; mean ± S.E.M.) does the source give for `Cl.Nc1nc(NC[C@H]2CC[C@H](CNS(=O)(=O)c3cccc4ccccc34)CC2)nc2ccccc12` [Compound 5, trans-Naphthalene-1-sulfonic acid {4-[(4-amino-quinazolin-2-ylamino)-methyl]-cyclohexylmethyl}-amide hydrochloride] here?
The value was 4.1 ± 0.4 g.

With `Nc1nc(NCCCCCCNS(=O)(=O)c2cccc3ccccc23)nc2ccccc12` [Compound 2, Naphthalene-1-sulfonic acid [6-(4-amino-quinazolin-2-ylamino)-hexyl]-amide] as the molecule, how does the “Two-hour food intake of food-deprived rats, percentage of intake compared to control rats, Mean” value (food intake) read?
Its value is 42%.

What does the source list for `Cl.O=S(=O)(NC[C@H]1CC[C@H](CNCc2ccc3ccccc3c2)CC1)c1ccccc1C(F)(F)F` [Compound 21]?
Two-hour food intake of food-deprived rats, percentage of intake compared to control rats, Mean (food intake): 80%; Ki (human Y5 receptor [1]): 0.0098 µM; Ki (human Y4 receptor): 18.5 µM; Ki (human Y2 receptor): 1.61 µM; Ki (human Y1 receptor): 13 µM

For `CNS(=O)(=O)Cc1ccc(Nc2nc(Nc3ccccc3)c3ccccc3n2)cc1.Cl` [Compound 11, N-Methyl-[4-(4-Phenylamino-quinazolin-2-ylamino)-phenyl]-methanesulfonamide hydrochloride], which “Two-hour food intake of food-deprived rats, percentage of intake compared to control rats, Mean” value (food intake) is on record?
The value was 15%.

How did the “Two-hour food intake of food-deprived rats, percentage of intake compared to control rats, Mean” value (food intake) turn out when `Cl.Cl.c1ccc(Nc2nc(Nc3ccc(N4CCCCC4)cc3)nc3ccccc23)cc1` [Compound 6, 2-[4-(Piperidin-1-yl)-phenylamino]-4-Phenylamino-quinazoline dihydrochloride] was run?
The value was 38%.

What about the Ki (α2c) of the same molecule?
Its Ki is 0.447 µM.

What does the source list for “NPY: peptide neurotransmitter neuropeptide Y, 36 amino acids; feeding studies used 300 pmole of porcine NPY i.c.v.”?
Food intake, NPY ([3]; 300 pmole NPY i.c.v. alone, cumulative intake 4 hours after NPY, mean ± S.E.M.): 7.4 ± 0.5 g and 6.8 ± 1.0 g and 5.8 ± 0.5 g and 4.9 ± 0.4 g; food intake of NPY-stimulated animals compared to vehicles ([3]; 300 pmole i.c.v., p<0.05 Student-Newman-Keuls): significantly induce food intake

Which “Two-hour food intake of food-deprived rats, percentage of intake compared to control rats, Mean” value (food intake) does the source give for `COc1ccc(Nc2nc(Nc3ccccc3)c3cccc(OC)c3n2)cc1.Cl` [Compound 9, 8-Methoxy-2-(4-methoxy-phenylamino)-4-phenylamino-quinazoline hydrochloride] here?
Its value is 40%.
